Measurements reported in patent US7390873B2, “Antimicrobial cationic peptides” (University of British Columbia, priority 1995, dated 2008).
Where no end group is shown, it is not given here.

Columns and labels:
Candida albicans C627 = assay type: cell-based; conditions: C627, 24 h
[1] = test system: Staphylococcus epidermidis C621; assay type: cell-based; conditions: C621, 24 h
Protocol: (§1) Any of the art-known methods for measuring antimicrobial activity of peptides can be used in characterizing the peptides of the invention. In these examples, conventional methods were used to determine the minimal inhibitory concentration (MIC) of a peptide in a liquid medium (Amsterdam. Antibiotics in Laboratory Medicine, Williams and Wilkins, Baltimore (1991) 72-78). Briefly, overnight cultures of the test organisms (described below) were diluted to produce an inoculum containing approximately 10^4 to 10^5 organisms. The inoculum size was confirmed by counting the number of organisms on plates that were inoculated at the same time as the liquid cultures.
(§2) The concentration of peptide was measured by assaying for free amino groups using a dinitrophenylation assay, with polymyxin B serving as a standard. Doubling dilutions of peptide were performed (32 μg/ml-0.25 μg/ml) in 100 μl volumes in a 96-well mictrotiter plate, and all wells were subsequently inoculated with the diluted culture of the test organism. After 24 hours of incubation at 37° C., the assay was read. The MIC value is the concentration of peptide at which the growth of the test organism was reduced by 50%. The number of cells in the culture inoculum was calculated from the plate count after incubating the plate for 24 hours at 37° C. The medium used for cell culture and dilution in this assay was Luria broth (LB). Each peptide was tested three times against each organism, and the MIC values presented below are the mean values of the three experiments.

E. coli UB1005 = assay type: cell-based; conditions: UB1005, 24 h
Protocol: as §1, §2

[2] = test system: Staphylococcus aureus RN4220; assay type: cell-based; conditions: RN4220, 24 h
Protocol: as §1, §2

[3] = test system: Pseudomonas aeruginosa K799; assay type: cell-based; conditions: K799, 24 h
Protocol: as §1, §2

[4] = Mortality after injection of peptide in mice; assay type: in vivo; conditions: 200 μg peptide IP
Protocol: The ability of indolicidin and variants to protect against LPS-induced endotoxemia was assessed in vivo. Mice (8-10 weeks old) were injected intraperitoneally (IP) with 20 mg D-galactosamine (Dgal) to sensitive them to LPS according to the model of Galanos (Galanos, C., M. A., Freudenberg and W. Reutter, 1979, Galactosamine sensitization to the lethal effects of endotoxin. Proc. Natl. Acad. Sci. USA 76:5939), followed by 200 μg peptide in 100 μl. Immediately afterwards LPS (10 μg) in 100 μl was injected. The mice were observed 24 hours after injections and survivors noted. […] When Dgal and LPS were also injected, that 200 μg of indolicidin reduced mortality reduced at 24 hours from 100% in controls to 60%.

human red blood cells = assay: Lysis of red blood cells; assay type: cell-based
Protocol: Freshly collected human blood was mixed with heparin and centrifuged to remove the buffy coat. The resulting erythrocytes were washed three times in 0.85% saline and stored at 4° C. Serial dilutions of the peptides in saline were prepared in round bottomed microtitre plates using 100 μl volumes. Red blood cells were diluted with saline to 1/25 of the packed volume of cells and 50 μl of red blood cells were added to each well. Plates were incubated while rocking at 37° C., and the concentration of peptide required for red blood cell lysis of more than 80% of cells (i.e., visible lysis) was determined at 4 and 24 hours (Table 7).

## ILKKWPWWPWRRK [CP-11]
Candida albicans C627
  MIC C. albicans: 8 µg/mL
[1]
  MIC S. epidermidis: 2 µg/mL
E. coli UB1005
  MIC E. coli: 4 µg/mL
[2]
  MIC S. aureus: 16 µg/mL
[3]
  MIC P. aeruginosa: 16 µg/mL
[4]
  Mortality after injection of peptide: did not cause mortality
Human red blood cells
  Lowest concentration causing lysis, 4 hours: >128 µg/mL
  Lowest concentration causing lysis, 24 hours: >128 µg/mL
T-lymphocytes
  Toxicity to T-lymphocytes compared with indolicidin: less toxic than indolicidin
